Reference: patent US20210330611A1, “THERAPY FOR NEUROLOGICAL DISEASES/DISORDERS” (priority 2020, published 2021)
Where two headings read alike, the source gives them in different places.

Assays:
[1] = system: fibrin- and LPS-induced microglia activation; experiment: cells; format: cell-based, rat
primary rat microglia [2] = system: primary rat microglia
primary rat microglia [3] = experiment: Cell toxicity (dead cells, size <150 μm2) in coated fibrin (cFib) assay; settings: primary microglia HTS;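 note: share of dead cells sized under 150 µm2 at 10 µM in fibrin-stimulated microglia HTS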
[4] = system: LPS-induced microglia activation; experiment: Image-based assay of LPS-induced microglia activation (HTS and dose response); format: cell-based, rat; settings: for inhibition at 10 µM: Rattus norvegicus, Microglia, read-out: LPS % inhibition
[5] = system: fibrin-induced microglia activation; experiment: Image-based assay of fibrin-induced microglia activation (HTS and dose response); format: cell-based, rat; settings: primary microglia HTS, fibrin stimulation; for inhibition at 10 µM: Rattus norvegicus, Microglia, read-out: Fibrin % inhibition
[6] = classification by fibrin and LPS inhibition in HTS
[7] = fibrin stimulation, cell size <150 μm2 as marker of toxicity
[8] = cell size >800 μm2 as marker of activation
[9] = quadrant by fibrin and LPS inhibition, HTS at 10 μM
[10] = fibrin assay, dead cells (size <150 μm2)
[11] = primary microglia HTS, LPS stimulation, compounds at 10 μM
[12] = classification by fibrin and LPS inhibition, HTS at 10 μM
[13] = fibrin assay, dead cells (size <150 μm2), compounds at 10 μM

CCC(=O)NCC[C@@H]1CCc2ccc3c(c21)CCO3 [Ramelteon]
Quadrant (FIG. 5b) [1, 6]: Q4
LPS % cell toxicity (primary rat microglia [2]; rat): 0%
Fibrin % cell toxicity (primary rat microglia [3]; [7]): 0%
inhibition at 10 µM ([4]; 48 h): 20%
inhibition at 10 µM [5, 8]: 25%

Clc1ccc(C(Cn2ccnc2)OCc2csc3c(Cl)cccc23)c(Cl)c1 (stereo not shown) [Sertaconazole]
Quadrant (FIG. 5b) [1, 6]: Q4
LPS % cell toxicity (primary rat microglia [2]; rat): 0%
Fibrin % cell toxicity (primary rat microglia [3]; [7]): 1%
inhibition at 10 µM ([4]; 48 h): 11%
inhibition at 10 µM [5, 8]: -25%

CCOc1nc2cccc(C(=O)OCc3oc(=O)oc3C)c2n1Cc1ccc(-c2ccccc2-c2noc(=O)[nH]2)cc1 [Azilsartan medoxomil]
Quadrant (FIG. 5b) [1, 9]: Q4
LPS % cell toxicity (primary rat microglia [2]; rat): 1%
Fibrin % cell toxicity (primary rat microglia [3]; [10]): 0%
inhibition at 10 µM [4, 11]: 31%
inhibition at 10 µM ([5]; compounds at 10 μM): 5%

O=C1OC(c2ccc(O)cc2)(c2ccc(O)cc2)c2ccccc21 [Phenolphthalein]
Quadrant (FIG. 5b) [1, 6]: Q4
LPS % cell toxicity (primary rat microglia [2]; rat): 0%
Fibrin % cell toxicity (primary rat microglia [3]; [7]): 1%
inhibition at 10 µM ([4]; 48 h): 13%
inhibition at 10 µM [5, 8]: 10%

C[C@H]1[C@@H](O)O[C@@H]2O[C@@]3(C)CC[C@H]4[C@H](C)CC[C@@H]1[C@@]24OO3 [Artenimol]
Quadrant (FIG. 5b) [1, 9]: Q4
LPS % cell toxicity (primary rat microglia [2]; rat): 0%
Fibrin % cell toxicity (primary rat microglia [3]; [10]): 0%
inhibition at 10 µM [4, 11]: 11%
inhibition at 10 µM ([5]; compounds at 10 μM): -56%

NC[C@H]1O[C@H](O[C@H]2[C@H](O)[C@@H](O[C@H]3O[C@H](CO)[C@@H](O)[C@H](N)[C@H]3O)[C@H](N)C[C@@H]2N)[C@H](N)[C@@H](O)[C@@H]1O.O=S(=O)(O)O [Becanamycin Sulfate, Bekanamycin Sulfate]
Quadrant (FIG. 5b) [1, 9]: Q4
LPS % cell toxicity (primary rat microglia [2]): 0%
Fibrin % cell toxicity (primary rat microglia [3]; [10]): 1%
LPS % inhibition [4, 11]: 16%
Fibrin % inhibition ([5]; compounds at 10 μM): −10%

CN1CCN(C(=O)O[C@H]2c3nccnc3C(=O)N2c2ccc(Cl)cn2)CC1 [Eszopiclone]
Quadrant (FIG. 5b) [1, 12]: Q4
LPS % cell toxicity (primary rat microglia [2]; rat): 0%
Fibrin % cell toxicity (primary rat microglia [3]; [13]): 0%
inhibition at 10 µM [4, 11]: 17%
inhibition at 10 µM ([5]; compounds at 10 μM): 1%

Cyanocobalamin
Quadrant (FIG. 5b) [1, 12]: Q4
LPS % cell toxicity (primary rat microglia [2]): 0%
Fibrin % cell toxicity (primary rat microglia [3]; [13]): 1%
LPS % inhibition [4, 11]: 11%
Fibrin % inhibition ([5]; compounds at 10 μM): −1%

C[C@H]1C[C@H]2[C@@H]3CCC4=CC(=O)C=C[C@]4(C)[C@@]3(Cl)[C@@H](O)C[C@]2(C)[C@@]1(O)C(=O)CO [Beclomethasone]
Quadrant (FIG. 5b) [1, 9]: Q4
LPS % cell toxicity (primary rat microglia [2]): 0%
Fibrin % cell toxicity (primary rat microglia [3]; [10]): 1%
LPS % inhibition [4, 11]: −3%
Fibrin % inhibition ([5]; compounds at 10 μM): −8%

O=C(O)CCNC(=O)c1ccc(/N=N/c2ccc(O)c(C(=O)O)c2)cc1 [Balsalazide]
Quadrant (FIG. 5b) [1, 9]: Q4
LPS % cell toxicity (primary rat microglia [2]; rat): 0%
Fibrin % cell toxicity (primary rat microglia [3]; [10]): 0%
inhibition at 10 µM [4, 11]: 11%
inhibition at 10 µM ([5]; compounds at 10 μM): -2%

Nc1nc(N)c2nc(CNc3ccc(C(=O)N[C@@H](CCC(=O)O)C(=O)O)cc3)cnc2n1 [Aminopterin]
Quadrant (FIG. 5b) [1, 9]: Q4
LPS % cell toxicity (primary rat microglia [2]; rat): 0%
Fibrin % cell toxicity (primary rat microglia [3]; [10]): 1%
inhibition at 10 µM [4, 11]: 17%
inhibition at 10 µM ([5]; compounds at 10 μM): -12%

OCC(O)CN1CCN(c2ccccc2)CC1 (stereo not shown) [Dropropizine]
Quadrant (FIG. 5b) [1, 12]: Q4
LPS % cell toxicity (primary rat microglia [2]; rat): 0%
Fibrin % cell toxicity (primary rat microglia [3]; [13]): 1%
inhibition at 10 µM [4, 11]: 11%
inhibition at 10 µM ([5]; compounds at 10 μM): -26%

N#CC(c1ccc(Cl)cc1)c1c(Cl)cc(-n2ncc(=O)[nH]c2=O)cc1Cl (stereo not shown) [Diclazuril]
Quadrant (FIG. 5b) [1, 12]: Q4
LPS % cell toxicity (primary rat microglia [2]; rat): 0%
Fibrin % cell toxicity (primary rat microglia [3]; [13]): 1%
inhibition at 10 µM [4, 11]: 21%
inhibition at 10 µM ([5]; compounds at 10 μM): 48%

CNCC(=O)c1ccc(O)c(O)c1.Cl [Adrenolone Hydrochloride]
Quadrant (FIG. 5b) [1, 9]: Q4
LPS % cell toxicity (primary rat microglia [2]): 0%
Fibrin % cell toxicity (primary rat microglia [3]; [10]): 0%
LPS % inhibition [4, 11]: 32%
Fibrin % inhibition ([5]; compounds at 10 μM): 28%

CCN1CCC[C@H]1CNC(=O)c1c(OC)ccc(Br)c1OC [Remoxipride]
Quadrant (FIG. 5b) [1, 6]: Q4
LPS % cell toxicity (primary rat microglia [2]; rat): 0%
Fibrin % cell toxicity (primary rat microglia [3]; [7]): 1%
inhibition at 10 µM ([4]; 48 h): 3%
inhibition at 10 µM [5, 8]: -14%

O=c1c2ccccc2[se]n1-c1ccccc1 [Ebselen]
Quadrant (FIG. 5b) [1, 12]: Q4
LPS % cell toxicity (primary rat microglia [2]; rat): 0%
Fibrin % cell toxicity (primary rat microglia [3]; [13]): 0%
inhibition at 10 µM [4, 11]: -1%
inhibition at 10 µM ([5]; compounds at 10 μM): -49%

Cc1cc(CC(C)CC(C)(C)C)n(O)c(=O)c1.NCCO (stereo not shown) [Piroctone Olamine]
Quadrant (FIG. 5b) [1, 6]: Q4
LPS % cell toxicity (primary rat microglia [2]): 1%
Fibrin % cell toxicity (primary rat microglia [3]; [7]): 1%
LPS % inhibition [4]: 39%
Fibrin % inhibition [5, 8]: 44%
